From article PMC12524621 (2025)

Tests used:
Experiment in all cases: fluorescence light-up (580/640 nm)
[1] = tested on: G4 parallel short-armed binary sensor + analyte (DNA, G4) AACTAGCTAATCCCACTTTTTTGGGTAGGG/GGGTTGGGTTTTTTCTGGGCATATCCAA/TCGGGCCTTGCGCGATTGGATATGCCCAGGTGGGATTAGCTAGTTGGTGGGGTAATGG; conditions: 62.5 mM K+, 50 mM Na+, Mg2+ (concentration not stated); 25 mM Tris-HCl pH 7, incubated at 37 °C; analyte 1 µM; S/B 3
[2] = tested on: CleavedCV30S_8 (m + f) (DNA, aptamer) AACGACCACCGGTGCGCCGTATTTTTT/AAAAAACAGGTAACTAGCGTCGTCGTT; conditions: 62.5 mM K+, 50 mM Na+, Mg2+ (concentration not stated); 25 mM Tris-HCl pH 7; second best cleavage site
[3] = tested on: CV30S (Aptamer_CV30S) (DNA, aptamer) AACGACCACCGGTGCGCCGTACAGGTAACTAGCGTCGTCGTT; conditions: 62.5 mM K+, 50 mM Na+, Mg2+ (concentration not stated); 25 mM Tris-HCl pH 7, ~22 °C, 1.7 µM each; S/B 7.8
[4] = tested on: CV30S_8 long-armed binary sensor + analyte (DNA, aptamer) TTACCCCACCAACTAGCTAATCCCACTTTAACGACCACCGGTGCGCCGTATTTTTT/AAAAAACAGGTAACTAGCGTCGTCGTTTTTCTGGGCATATCCAATCGCGCAA/TCGGGCCTTGCGCGATTGGATATGCCCAGGTGGGATTAGCTAGTTGGTGGGGTAATGG; conditions: 62.5 mM K+, 50 mM Na+, Mg2+ (concentration not stated); 25 mM Tris-HCl pH 7, incubated at 55 °C; analyte 1 µM; S/B 2.1
[5] = tested on: G4 antiparallel long-armed binary sensor + analyte (DNA, G4) TTACCCCACCAACTAGCTAATCCCACTTTTTTAGGGTTAGG/GTTAGGGTTAGGGTTTTTTCTGGGCATATCCAATCGCGCAA/TCGGGCCTTGCGCGATTGGATATGCCCAGGTGGGATTAGCTAGTTGGTGGGGTAATGG; conditions: 37.5 mM K+, 50 mM Na+, Mg2+ (concentration not stated); 25 mM Tris-HCl pH 7, incubated at 55 °C; analyte 1 µM; S/B 3.3
[6] = tested on: G4 antiparallel short-armed binary sensor + analyte (DNA, G4) AACTAGCTAATCCCACTTTTTTAGGGTTAGG/GTTAGGGTTAGGGTTTTTTCTGGGCATATCCAA/TCGGGCCTTGCGCGATTGGATATGCCCAGGTGGGATTAGCTAGTTGGTGGGGTAATGG; conditions: 37.5 mM K+, 50 mM Na+, Mg2+ (concentration not stated); 25 mM Tris-HCl pH 7, incubated at 37 °C; analyte 1 µM; S/B 3.2
[7] = tested on: G4 parallel (Aptamer_G4_parallel) (DNA, G4) GGGTAGGGCGGGTTGGG; conditions: 62.5 mM K+, 50 mM Na+, Mg2+ (concentration not stated); 25 mM Tris-HCl pH 7, ~22 °C, 1.7 µM each; S/B 1.9, poorest of three
[8] = tested on: CleavedCV30S_1 (m + f) (DNA, aptamer) AACGACCACCGGTGTTTTTT/AAAAAACGCCGTACAGGTAACTAGCGTCGTCGTT; conditions: 62.5 mM K+, 50 mM Na+, Mg2+ (concentration not stated); 25 mM Tris-HCl pH 7; fourth best cleavage site
[9] = tested on: CleavedCV30S_3 (m + f) (DNA, aptamer) AACGACCACCGGTGCGCCGTACAGGTTTTTTT/AAAAAAAACTAGCGTCGTCGTT; conditions: 62.5 mM K+, 50 mM Na+, Mg2+ (concentration not stated); 25 mM Tris-HCl pH 7; third best cleavage site
[10] = tested on: CleavedCV30S_2 (m + f) (DNA, aptamer) AACGACCACCGGTGCGCCGTTTTTTT/AAAAAAACAGGTAACTAGCGTCGTCGTT; conditions: 62.5 mM K+, 50 mM Na+, Mg2+ (concentration not stated); 25 mM Tris-HCl pH 7; best of eight cleavage sites
[11] = tested on: G4 antiparallel (Aptamer_G4_antiparallel) (DNA, G4) AGGGTTAGGGTTAGGGTTAGGG; conditions: 37.5 mM K+, 50 mM Na+, Mg2+ (concentration not stated); 25 mM Tris-HCl pH 7, ~22 °C, 1.7 µM each; S/B 8.7
[12] = tested on: CV30S_8 short-armed binary sensor + analyte (DNA, aptamer) AACTAGCTAATCCCACTTTAACGACCACCGGTGCGCCGTATTTTTT/AAAAAACAGGTAACTAGCGTCGTCGTTTTTCTGGGCATATCCAA/TCGGGCCTTGCGCGATTGGATATGCCCAGGTGGGATTAGCTAGTTGGTGGGGTAATGG; conditions: 62.5 mM K+, 50 mM Na+, Mg2+ (concentration not stated); 25 mM Tris-HCl pH 7, incubated at 37 °C; analyte 1 µM; S/B 2.2
[13] = tested on: G4 parallel long-armed binary sensor + analyte (DNA, G4) TTACCCCACCAACTAGCTAATCCCACTTTTTTGGGTAGGG/GGGTTGGGTTTTTTCTGGGCATATCCAATCGCGCAA/TCGGGCCTTGCGCGATTGGATATGCCCAGGTGGGATTAGCTAGTTGGTGGGGTAATGG; conditions: 62.5 mM K+, 50 mM Na+, Mg2+ (concentration not stated); 25 mM Tris-HCl pH 7, incubated at 55 °C; analyte 1 µM; S/B 3.3

Measured: binding

CN(C)c1ccc(C(=C2C=CC(=[N+](C)C)C=C2)c2ccc(N(C)C)cc2)cc1
yes: all assays above
